# Laboratory results reported in patent US9738634B2, “Heterocyclic amide compound and herbicide” (SYNGENTA PARTICIPATIONS AG, priority 2013, dated 2017).
# What was measured:
# Format in all cases: in vivo
# crabgrass [1] = experiment: Test Example 3: weedkilling efficacy through soil treatment; D: crabgrass; conditions: treatment dosage 135.45 g/ha
# Procedure, shortened: (§1)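 Crop and weed responses were judged three weeks after a uniform surface spray of the water-diluted emulsion at the given g/ha rate. Seeds sat beneath about 1.5 cm of sterilized diluvial soil, and boxes stood in a greenhouse at 25 to 30° C.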
# Italian ryegrass [2] = experiment: Test Example 4: weedkilling efficacy by foliar treatment; I: Italian ryegrass; conditions: treatment dosage 135.45 g/ha
# Experimental: (§2) Testing of Weedkilling Efficacy by Foliar Treatment
# (§3) Sterilized diluvial soil was introduced into 21 cm long, 13 cm wide, 7 cm deep plastic boxes, and seeds of crabgrass, green foxtail, barnyard grass, wild oat, black-grass, Italian ryegrass, common wind-grass, Indian mallow, redroot pigweed, fig-leafed goosefoot, chickweed, catchweed, birds-eye speedwell, corn, soybean, rice, wheat, beet and rapeseed were each spot-sown, and covered with about 1.5 cm of soil, then the plants were grown in a greenhouse at 25 to 30° C.
# (§4) After they had grown for 14 days, emulsions of compounds of the present invention prepared according to compounding example 2 were diluted with water to give the specified dosages, and applied uniformly onto the stem and leaf parts with a small sprayer. 3 weeks after the pesticide treatment the effect on each type of plant was investigated on the basis of the assessment criteria of test example 1.
# (§5) A: barnyard grass, B: bulrush, C: oval-leafed pondweed, D: crabgrass, E: green foxtail, F: barnyard grass, G: wild oat, H: black-grass, I: Italian ryegrass, J: common wind-grass, K: Indian mallow, L: redroot pigweed, M: fig-leafed goosefoot, N: chickweed, O: catchweed, p: birds-eye speedwell, a: transplanted rice, b: directly sown rice, c: corn, d: soybean, e: wheat, f: beet, g: rapeseed
# (§6) Further, pesticide dosage (g/ha) indicates the concentration regulated such that treatment was with only the stated number of grams (g), when calculated per hectare (ha).
# corn [3] = experiment: Test Example 3: soil treatment, effect on crop; c: corn; conditions: treatment dosage 135.45 g/ha
# Procedure, shortened: as §1
# oval-leafed pondweed [4] = experiment: Test Example 2: weedkilling efficacy, growth period weed treatment in the submerged state; C: oval-leafed pondweed; conditions: treatment dosage 108.36 g/ha
# Procedure, shortened: (§7)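 First, alluvial soil in pots is flooded to 4 cm and mixed seed is sown. Next, plants grow in a greenhouse at 25 to 30° C until the 1-2 leaf stage. Then diluted emulsion is applied onto the water surface at the given g/ha rate, and injury is assessed after 3 weeks.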
# soybean [5] = experiment: Test Example 3: soil treatment, effect on crop; d: soybean; conditions: treatment dosage 135.45 g/ha
# Procedure, shortened: as §1
# fig-leafed goosefoot [6] = experiment: Test Example 3: weedkilling efficacy through soil treatment; M: fig-leafed goosefoot; conditions: treatment dosage 135.45 g/ha
# Procedure, shortened: as §1
# chickweed [7] = experiment: Test Example 4: weedkilling efficacy by foliar treatment; N: chickweed; conditions: treatment dosage 135.45 g/ha
# Experimental: as §2, §3, §4, §5, §6
# redroot pigweed [8] = experiment: Test Example 3: weedkilling efficacy through soil treatment; L: redroot pigweed; conditions: treatment dosage 135.45 g/ha
# Procedure, shortened: as §1
# catchweed = experiment: Test Example 4: weedkilling efficacy by foliar treatment; O: catchweed; conditions: treatment dosage 135.45 g/ha
# Experimental: as §2, §3, §4, §5, §6
# black-grass [9] = experiment: Test Example 4: weedkilling efficacy by foliar treatment; H: black-grass; conditions: treatment dosage 135.45 g/ha
# Experimental: as §2, §3, §4, §5, §6
# birds-eye speedwell [10] = experiment: Test Example 4: weedkilling efficacy by foliar treatment; p: birds-eye speedwell; conditions: treatment dosage 135.45 g/ha
# Experimental: as §2, §3, §4, §5, §6
# barnyard grass [11] = experiment: Test Example 1: weedkilling efficacy, preemergent weed treatment in the submerged state; A: barnyard grass; conditions: treatment dosage 108.36 g/ha
# Procedure, shortened: (§8)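 Emulsion diluted with water to the specified per-hectare dosage is applied onto flood water (4 cm) over alluvial soil on the sowing day, with barnyard grass, bulrush and pondweed seeded and rice (2.5-leaf) transplanted; plants grow at 25–30 °C and are rated at 3 weeks.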
# green foxtail [12] = experiment: Test Example 4: weedkilling efficacy by foliar treatment; E: green foxtail; conditions: treatment dosage 135.45 g/ha
# Experimental: as §2, §3, §4, §5, §6
# Indian mallow [13] = experiment: Test Example 4: weedkilling efficacy by foliar treatment; K: Indian mallow; conditions: treatment dosage 135.45 g/ha
# Experimental: as §2, §3, §4, §5, §6
# black-grass [14] = experiment: Test Example 3: weedkilling efficacy through soil treatment; H: black-grass; conditions: treatment dosage 135.45 g/ha
# Procedure, shortened: as §1
# crabgrass [15] = experiment: Test Example 4: weedkilling efficacy by foliar treatment; D: crabgrass; conditions: treatment dosage 135.45 g/ha
# Experimental: as §2, §3, §4, §5, §6
# Indian mallow [16] = experiment: Test Example 3: weedkilling efficacy through soil treatment; K: Indian mallow; conditions: treatment dosage 135.45 g/ha
# Procedure, shortened: as §1
# bulrush [17] = experiment: Test Example 1: weedkilling efficacy, preemergent weed treatment in the submerged state; B: bulrush; conditions: treatment dosage 108.36 g/ha
# Procedure, shortened: as §8
# fig-leafed goosefoot [18] = experiment: Test Example 4: weedkilling efficacy by foliar treatment; M: fig-leafed goosefoot; conditions: treatment dosage 135.45 g/ha
# Experimental: as §2, §3, §4, §5, §6
# transplanted rice = experiment: Test Example 1: preemergent weed treatment in the submerged state, effect on crop; a: transplanted rice; conditions: treatment dosage 108.36 g/ha
# Procedure, shortened: as §8
# birds-eye speedwell [19] = experiment: Test Example 3: weedkilling efficacy through soil treatment; p: birds-eye speedwell; conditions: treatment dosage 135.45 g/ha
# Procedure, shortened: as §1
# redroot pigweed [20] = experiment: Test Example 4: weedkilling efficacy by foliar treatment; L: redroot pigweed; conditions: treatment dosage 135.45 g/ha
# Experimental: as §2, §3, §4, §5, §6
# directly sown rice [21] = experiment: Test Example 3: soil treatment, effect on crop; b: directly sown rice; conditions: treatment dosage 135.45 g/ha
# Procedure, shortened: as §1
# bulrush [22] = experiment: Test Example 2: weedkilling efficacy, growth period weed treatment in the submerged state; B: bulrush; conditions: treatment dosage 108.36 g/ha
# Procedure, shortened: as §7
# green foxtail [23] = experiment: Test Example 3: weedkilling efficacy through soil treatment; E: green foxtail; conditions: treatment dosage 135.45 g/ha
# Procedure, shortened: as §1
# wheat [24] = experiment: Test Example 3: soil treatment, effect on crop; e: wheat; conditions: treatment dosage 135.45 g/ha
# Procedure, shortened: as §1
# Italian ryegrass [25] = experiment: Test Example 3: weedkilling efficacy through soil treatment; I: Italian ryegrass; conditions: treatment dosage 135.45 g/ha
# Procedure, shortened: as §1
# beet = experiment: Test Example 4: foliar treatment, effect on crop; f: beet; conditions: treatment dosage 135.45 g/ha
# Experimental: as §2, §3, §4, §5, §6
# wheat [26] = experiment: Test Example 4: foliar treatment, effect on crop; e: wheat; conditions: treatment dosage 135.45 g/ha
# Experimental: as §2, §3, §4, §5, §6
# barnyard grass [27] = experiment: Test Example 2: weedkilling efficacy, growth period weed treatment in the submerged state; A: barnyard grass; conditions: treatment dosage 108.36 g/ha
# Procedure, shortened: as §7
# chickweed [28] = experiment: Test Example 3: weedkilling efficacy through soil treatment; N: chickweed; conditions: treatment dosage 135.45 g/ha
# Procedure, shortened: as §1
# directly sown rice [29] = experiment: Test Example 4: foliar treatment, effect on crop; b: directly sown rice; conditions: treatment dosage 135.45 g/ha
# Experimental: as §2, §3, §4, §5, §6
# corn [30] = experiment: Test Example 4: foliar treatment, effect on crop; c: corn; conditions: treatment dosage 135.45 g/ha
# Experimental: as §2, §3, §4, §5, §6
# oval-leafed pondweed [31] = experiment: Test Example 1: weedkilling efficacy, preemergent weed treatment in the submerged state; C: oval-leafed pondweed; conditions: treatment dosage 108.36 g/ha
# Procedure, shortened: as §8
# soybean [32] = experiment: Test Example 4: foliar treatment, effect on crop; d: soybean; conditions: treatment dosage 135.45 g/ha
# Experimental: as §2, §3, §4, §5, §6
compound,measurement,setting,value
CC1=C(c2ccccc2)C(=O)N(C(C)(C)C(=O)Nc2cccc(C)n2)CO1 [B-2-53],D (crabgrass) weedkilling efficacy grade,crabgrass [1],"5 (weed kill ratio 90% or more, (practically complete withering))"
same,I (Italian ryegrass) weedkilling efficacy grade,Italian ryegrass [2],"5 (weed kill ratio 90% or more, (practically complete withering))"
same,c (corn) effect on crop grade,corn [3],0 (weed kill ratio 5% or less (practically no effect))
same,C (oval-leafed pondweed) weedkilling efficacy grade,oval-leafed pondweed [4],"4 (weed kill ratio 70% or more, less than 90%)"
same,d (soybean) effect on crop grade,soybean [5],0 (weed kill ratio 5% or less (practically no effect))
same,M (fig-leafed goosefoot) weedkilling efficacy grade,fig-leafed goosefoot [6],"4 (weed kill ratio 70% or more, less than 90%)"
same,N (chickweed) weedkilling efficacy grade,chickweed [7],"1 (weed kill ratio 5% or more, less than 20%)"
same,L (redroot pigweed) weedkilling efficacy grade,redroot pigweed [8],"3 (weed kill ratio 40% or more, less than 70%)"
same,O (catchweed) weedkilling efficacy grade,catchweed,"3 (weed kill ratio 40% or more, less than 70%)"
same,H (black-grass) weedkilling efficacy grade,black-grass [9],"5 (weed kill ratio 90% or more, (practically complete withering))"
same,P (birds-eye speedwell) weedkilling efficacy grade,birds-eye speedwell [10],"4 (weed kill ratio 70% or more, less than 90%)"
same,A (barnyard grass) weedkilling efficacy grade,barnyard grass [11],"5 (weed kill ratio 90% or more, (practically complete withering))"
same,E (green foxtail) weedkilling efficacy grade,green foxtail [12],"5 (weed kill ratio 90% or more, (practically complete withering))"
same,K (Indian mallow) weedkilling efficacy grade,Indian mallow [13],"4 (weed kill ratio 70% or more, less than 90%)"
same,H (black-grass) weedkilling efficacy grade,black-grass [14],"5 (weed kill ratio 90% or more, (practically complete withering))"
same,D (crabgrass) weedkilling efficacy grade,crabgrass [15],"5 (weed kill ratio 90% or more, (practically complete withering))"
same,K (Indian mallow) weedkilling efficacy grade,Indian mallow [16],0 (weed kill ratio 5% or less (practically no effect))
same,B (bulrush) weedkilling efficacy grade,bulrush [17],"5 (weed kill ratio 90% or more, (practically complete withering))"
same,M (fig-leafed goosefoot) weedkilling efficacy grade,fig-leafed goosefoot [18],"3 (weed kill ratio 40% or more, less than 70%)"
same,a (transplanted rice) effect on crop grade,transplanted rice,0 (weed kill ratio 5% or less (practically no effect))
same,P (birds-eye speedwell) weedkilling efficacy grade,birds-eye speedwell [19],"5 (weed kill ratio 90% or more, (practically complete withering))"
same,L (redroot pigweed) weedkilling efficacy grade,redroot pigweed [20],"4 (weed kill ratio 70% or more, less than 90%)"
same,b (directly sown rice) effect on crop grade,directly sown rice [21],"3 (weed kill ratio 40% or more, less than 70%)"
same,B (bulrush) weedkilling efficacy grade,bulrush [22],"5 (weed kill ratio 90% or more, (practically complete withering))"
same,E (green foxtail) weedkilling efficacy grade,green foxtail [23],"5 (weed kill ratio 90% or more, (practically complete withering))"
same,e (wheat) effect on crop grade,wheat [24],"2 (weed kill ratio 20% or more, less than 40%)"
same,I (Italian ryegrass) weedkilling efficacy grade,Italian ryegrass [25],"5 (weed kill ratio 90% or more, (practically complete withering))"
same,f (beet) effect on crop grade,beet,0 (weed kill ratio 5% or less (practically no effect))
same,e (wheat) effect on crop grade,wheat [26],"1 (weed kill ratio 5% or more, less than 20%)"
same,A (barnyard grass) weedkilling efficacy grade,barnyard grass [27],"3 (weed kill ratio 40% or more, less than 70%)"
same,N (chickweed) weedkilling efficacy grade,chickweed [28],0 (weed kill ratio 5% or less (practically no effect))
same,b (directly sown rice) effect on crop grade,directly sown rice [29],"4 (weed kill ratio 70% or more, less than 90%)"
same,c (corn) effect on crop grade,corn [30],"1 (weed kill ratio 5% or more, less than 20%)"
same,C (oval-leafed pondweed) weedkilling efficacy grade,oval-leafed pondweed [31],"5 (weed kill ratio 90% or more, (practically complete withering))"
same,d (soybean) effect on crop grade,soybean [32],"4 (weed kill ratio 70% or more, less than 90%)"
